Columns and labels:
DU 145 = test: CyQuant cell viability and proliferation assay, DU 145; assay type: cell-based; details: Homo sapiens, 48 h, CyQuant viability
Description: (§1) Briefly, human breast (MDA-MB-231), pancreatic (Panc-1), and prostate (DU145) cancer cells, the v-Src transformed (NIH3T3/v-Src) fibroblasts or their normal counterparts (NIH3T3), and the murine thymic stromal epithelial cells (TE-71) were treated or not treated with 30-500 μM of the representative disclosed compounds, as indicated, for 48 h and assessed for viability using CyQuant cell proliferation kit. Values, mean (SD of 3 independent experiments each in triplicate.
(§2) Cells in culture in 6-well or 96-well plates were treated with or without agents for 24-144 h and subjected to CyQuant cell proliferation assay (Invitrogen Corp/Life Technologies Corp, Carlsbad, Calif.). IC50 values shown below were derived from the plot of viability versus drug concentration.
(§3) As aberrant STAT3 activity promotes cancer cell growth and survival, and tumor angiogenesis and metastasis (Turkson et al., 2004; Yue et al., 2009; Turkson et al., 2004; Turkson et al., 2001; Siddiquee et al., 2007; Siddiquee et al., 2007(b); Song et al., 2005; Turkson et al., 2005), the sensitivity of various cell lines to the purine scaffold treatment was tested. […] (see also Table 2). The data represented by FIG. 4 were the results of experiments performed in triplicate.

MDA-MB-231 = test: CyQuant cell viability and proliferation assay, MDA-MB-231; assay type: cell-based; details: Homo sapiens, 48 h, CyQuant viability
Description: as §1, §2, §3

NIH3T3/v-Src = test: CyQuant cell viability and proliferation assay, NIH3T3/v-Src; assay type: cell-based; details: Mus musculus, 48 h, CyQuant viability
Description: as §1, §2, §3

Panc-1 = test: CyQuant cell viability and proliferation assay, Panc-1; assay type: cell-based; details: Homo sapiens, 48 h, CyQuant viability
Description: as §1, §2, §3

pSrc = test: Immunoblotting of constitutive pSrc in NIH3T3/v-Src and MDA-MB-231; assay type: cell-based; details: same treatments, all panels of FIG. 2
Description: (§4) Positions of proteins in gel are labeled; control lanes (0) are whole-cell lysates from 0.05% DMSO-treated cells. Data are representative of 3-4 independent determinations. Further discussion on the figure is provided in the Experimental section below.
(§5) Immunoprecipitation, and SDS/PAGE and Western blotting analysis were performed as previously described (6, 16). Primary antibodies used were anti-STAT3, pY705STAT3, pY416Src, Src, pErk1/2, Erk1/2, pSTAT1, STAT1, (Cell Signaling), and antiphosphotyrosine, clone 4G10 (Upstate Biotechnology, Lake Placid, N.Y.). Where appropriate, cells were stimulated for 12 min by 9 ng/μl rhEGF (12 μl into 3 ml culture) prior to preparation of whole-cell lysates for immunoprecipitation and/or immunoblotting analysis.

pErk1/2 = test: Immunoblotting of constitutive phospho-ErkMAPK in NIH3T3/v-Src and MDA-MB-231; assay type: cell-based; details: same treatments, all panels of FIG. 2
Description: as §4, §5

[1] = test system: DU145, MDA-MB-231, Panc-1 and NIH3T3/v-Src cells; test: CyQuant cell proliferation assay, cells that harbor constitutively active STAT3; assay type: cell-based; details: 48 hours, 30-500 μM, DU145, MDA-MB-231, Panc-1, NIH3T3/v-Src
Source text: Values, mean (SD of 3 independent experiments each in triplicate.
IC50 values shown below were derived from the plot of viability versus drug concentration.
(see also Table 2). The data represented by FIG. 4 were the results of experiments performed in triplicate.

STAT3 = STAT3 (Mus musculus, UniProt P42227); test: Surface plasmon resonance analysis of binding to STAT3; set-up: His; made in house; host or cells: E. coli BL21(DE3); species or system murine; details: SPR, purified STAT3 immobilized on HisCap Sensor Chip
Description: Coding regions for the murine STAT3 protein and STAT3 SH2 domain were amplified by PCR and cloned into vectors pET-44 Ek/LIC (Novagen) and pET SUMO (Invitrogen), respectively. […] Clones were sequenced to verify the correct sequences and orientation. His-tagged recombinant proteins were expressed in BL21(DE3) cells, and purified on Ni-ion sepharose column.
Surface Plasmon resonance analysis was performed to characterize the binding of compounds to STAT3, as previously reported (16). SensiQ and its analysis software Qdat (ICX Technologies, Oklahoma City, Okla.) were used to analyze the interaction between agents and the STAT3 protein and to determine the binding affinity. Purified STAT3 was immobilized on a HisCap Sensor Chip by injecting 50 μg/ml of STAT3 onto the chip. Various concentrations of compounds in running buffer (1×PBS, 0.5% DMSO) were passed over the sensor chip to produce response signals. The association and dissociation rate constants were calculated using the Qdat software. The ratio of the association and dissociation rate constants was determined as the affinity (KD).

NIH3T3 = test: CyQuant cell viability and proliferation assay, NIH3T3; assay type: cell-based; details: Mus musculus, 48 h, CyQuant viability
Description: as §1, §2, §3

TE-71 = test: CyQuant cell viability and proliferation assay, TE-71; assay type: cell-based, murine; details: Mus musculus; 48 h, CyQuant viability
Description: as §1, §2, §3

pY705STAT3 [2] = test: Immunoblotting of constitutive STAT3 phosphorylation in NIH3T3/v-Src; assay type: cell-based, mouse; details: for constitutive STAT3 phosphorylation: NIH3T3/v-Src, 40 or 50 μM, 12, 24, or 48 h
Description: as §4, §5

pY705STAT3 [3] = test: Immunoblotting of constitutive STAT3 phosphorylation in MDA-MB-231; assay type: cell-based, human; details: for constitutive STAT3 phosphorylation: MDA-MB-231, 40 or 50 μM, 12, 24, or 48 h
Description: as §4, §5

pY705-STAT3 = test: Immunoblotting of EGF-induced STAT3 phosphorylation in NIH3T3/hEGFR; assay type: cell-based, mouse; details: EGF-stimulated
Description: As indicated, the cells were treated or untreated with the indicated agents at 40 or 50 μM for the indicated times and probing for pY705STAT3, STAT3, pErk1/2, Erk1/2, pSrc, Src, pSTAT1, STAT1, or pTyr (clone 4G10). Positions of proteins in gel are labeled; control lanes (0) are whole-cell lysates from 0.05% DMSO-treated cells. Data are representative of 3-4 independent determinations. Further discussion on the figure is provided in the Experimental section below.
as §5
The effect of 8bj and 17b on ligand-stimulated STAT activation was also examined. […] These findings were consistent with other reports regarding other SH2 domain binding STAT3 inhibitors. (Turkson et al., 2001; Siddiquee et al., 2007; Siddiquee et al., 2007(b)).

STAT3, sequence (P42227 whole entry, the tested form may be a part): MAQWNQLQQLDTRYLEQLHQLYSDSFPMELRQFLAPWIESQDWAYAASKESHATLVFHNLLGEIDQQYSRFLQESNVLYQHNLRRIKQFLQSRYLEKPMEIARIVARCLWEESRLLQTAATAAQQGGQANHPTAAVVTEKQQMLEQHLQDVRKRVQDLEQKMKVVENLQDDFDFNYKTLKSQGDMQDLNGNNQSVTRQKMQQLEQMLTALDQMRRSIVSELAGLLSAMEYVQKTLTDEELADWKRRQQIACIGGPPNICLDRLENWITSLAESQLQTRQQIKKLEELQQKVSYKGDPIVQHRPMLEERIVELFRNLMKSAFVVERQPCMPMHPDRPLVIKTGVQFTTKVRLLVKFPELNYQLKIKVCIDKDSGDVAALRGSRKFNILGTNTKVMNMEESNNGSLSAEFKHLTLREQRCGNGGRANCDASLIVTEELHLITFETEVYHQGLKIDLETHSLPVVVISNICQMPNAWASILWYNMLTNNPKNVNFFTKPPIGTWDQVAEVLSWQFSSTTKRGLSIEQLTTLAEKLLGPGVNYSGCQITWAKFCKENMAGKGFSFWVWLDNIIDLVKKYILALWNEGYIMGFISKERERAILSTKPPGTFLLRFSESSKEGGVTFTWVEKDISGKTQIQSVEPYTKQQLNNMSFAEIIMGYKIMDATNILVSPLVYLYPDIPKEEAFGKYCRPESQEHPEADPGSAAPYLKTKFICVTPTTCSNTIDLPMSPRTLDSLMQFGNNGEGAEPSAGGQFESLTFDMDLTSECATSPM

Structure (SMILES)	IC50 (DU 145) [µM]	IC50 (MDA-MB-231) [µM]	IC50 (NIH3T3/v-Src) [µM]	IC50 (Panc-1) [µM]	constitutive levels of Src (pSrc) (pSrc)	constitutive levels of phospho-ErkMAPK (pErk1/2) (pErk1/2)	malignant cell viability [1]	Kd (STAT3) [µM]	IC50 (NIH3T3) [µM]	IC50 (TE-71) [µM]	STAT3 phosphorylation during prolonged treatment (pY705STAT3 [2]; NIH3T3/v-Src fibroblasts, time course)	constitutive STAT3 phosphorylation (pY705STAT3 [2])	constitutive STAT3 phosphorylation (pY705STAT3 [3])	time after treatment at which STAT3 phosphorylation was inhibited (pY705STAT3 [3]; MDA-MB-231, time course) [min]	STAT3 phosphorylation after 6 h of treatment (pY705STAT3 [3]; MDA-MB-231, time course, 6 h)	epidermal growth factor (EGF)-induced STAT3 phosphorylation (pY705-STAT3)
O=C(O)Cn1cnc2c(NC3CCCC3)nc(NCc3ccc(C4CCCCC4)cc3)nc21 [8be, 2-(2-((4-cyclohexylbenzyl)amino)-6-(cyclopentylamino)-9H-purin-9-yl)acetic acid]	68.6 ± 1.8	145 ± 4.4	100 ± 2.2	176 ± 5.3	no effect	no effect	decrease in malignant cell viability	16.7	> 500	> 500	temporarily restored	inhibition of constitutive STAT3 phosphorylation	inhibition of constitutive STAT3 phosphorylation	15 to 30	restoration of STAT3 phosphorylation	–
CC(C)CNc1nc(NCc2ccc(C3CCCCC3)cc2)nc2c1ncn2CC(=O)O [8bj, 2-(2-((4-cyclohexylbenzyl)amino)-6-(isobutylamino)-9H-purin-9-yl)acetic acid]	65.3 ± 2.3	66.1 ± 2.1	41.1 ± 4.6	77.2 ± 1.9	no effect	no effect	decrease in malignant cell viability	39	> 500	> 500	–	inhibition of constitutive STAT3 phosphorylation	inhibition of constitutive STAT3 phosphorylation	–	–	selectively inhibited
